This passage reports Ki results from patent US10954217B2 (priority 2016, dated 2021).

Assay in all cases: biochemical
The target in assay [1] is Alpha2C (Homo sapiens (Human), UniProt P18825).
Assay [2] has as its target Alpha2A (Homo sapiens (Human), UniProt P08913).
Assay [3] has as its target H2 (Homo sapiens (Human), UniProt P25021).
Assay [4] has as its target 5-HT2C (Homo sapiens (Human), UniProt P28335).
Assay [5] has as its target 5-HT2B (Homo sapiens (Human), UniProt P41595).
The target in assay [6] is Alpha2B (Homo sapiens (Human), UniProt P18089).
Assay [7] deals with D3 (Homo sapiens (Human), UniProt P35462).
The target of assay [8] is M2 (Homo sapiens (Human), UniProt P08172).
Assay [9] concerns the target Alpha1B (Homo sapiens (Human), UniProt P35368).
In assay [10] the target is M4 (Homo sapiens (Human), UniProt P08173).
Assay [11] concerns the target 5-HT2A (Homo sapiens (Human), UniProt P28223).
Assay [12] concerns the target M3 (Homo sapiens (Human), UniProt P20309).
Assay [13] has as its target M5 (Homo sapiens (Human), UniProt P08912).
For assay [14], the target named is Alpha1D (Homo sapiens (Human), UniProt P25100).
Assay [15] has as its target H1 (Homo sapiens (Human), UniProt P35367).
Assay [16] addresses KOR (Homo sapiens (Human), UniProt P41145).
The target in assay [17] is D4 (Homo sapiens (Human), UniProt P21917).

As for `Clc1cc(Cl)cc(CN2Cc3ccc(N4CCOCC4)cc3C2)c1`, the Ki in assay [1] was 4540 nM; in assay [2], 2340 nM; in assay [3], 1180 nM; in assay [4] it was 1380 nM; in [5] it was 702 nM; in [6] it was 6800 nM.

`C=CCN1CCN(c2ccc3c(c2)CN(S(=O)(=O)c2cc(Cl)cc(Cl)c2)C3)CC1`: the inhibition constant (Ki) is 168 nM in assay [1]; 220 nM in assay [7]; 4200 nM in assay [8]; 1390 nM in [9]; 1890 nM in [10]; 513 nM in assay [11]. Besides, the Ki in assay [12] worked out at 710 nM; in assay [13], 1290 nM.

In the case of `CN1CCN(c2ccc3c(c2)CN(S(=O)(=O)c2cc(Cl)cc(Cl)c2)C3)CC1`, the Ki is 599 nM in assay [7]; 3890 nM in [8]; 6470 nM in assay [14]; 3510 nM in assay [10]; 520 nM in assay [11]; 487 nM in assay [15]. Besides, the inhibitory constant (Ki) in assay [4] came to 833 nM; in assay [16] it was 8490 nM; in [12], 1960 nM; in [13], 2090 nM.

For the molecule `Clc1cc(Cl)cc(CN2CCc3ccc(N4CCOCC4)cc3C2)c1`, the Ki in [7] was found to be 3230 nM; in [15] it was 1330 nM; in [17], 973 nM.

For `CN1CCN(c2ccc3c(c2)CN(S(=O)(=O)c2cc(Cl)cc(Cl)c2)CC3)CC1`, the Ki was found to be 271 nM in assay [7]; 1650 nM in assay [8]; 2280 nM in assay [10]; 4780 nM in [15]; 1080 nM in assay [4]; 206 nM in assay [5]. Further, the Ki in assay [16] amounted to 2560 nM; in [12], 2020 nM; in assay [13], 2320 nM.

With `C=CCN1CCN(c2ccc3c(c2)CN(S(=O)(=O)c2cc(Cl)cc(Cl)c2)CC3)CC1`, the inhibition constant Ki in assay [7] was found to be 107 nM; in assay [14], 3500 nM; in [15], 241 nM; in assay [5] it was 397 nM; in [16], 2200 nM; in [12], 1950 nM. Also, the affinity in [13], expressed as Ki, was 3580 nM.

The Ki is the equilibrium dissociation constant of an inhibitor or competing ligand from its target. A low value points to tighter binding.
